Laboratory results published in patent publication US10940144B2, “Drug containing pyridylaminoacetic acid compound” (priority 2017, dated 2021).

What was measured:
[1] = test system: optic nerve head tissue blood flow; experiment: Pharmacological Test 4: optic nerve head tissue blood flow (laser speckle flowgraphy) after repeated instillation of omidenepag isopropyl to rabbits; type: in vivo, rabbit; details: for Base-Corrected Optic Nerve Head Tissue Blood Flow Change Rate (%): 0.002% (w/v) (20 μg/mL), 50 μL instilled once a day for 14 days, rabbit, average of four animals
Experimental: In order to find a new medicinal use of omidenepag, an ester thereof, or a salt thereof, the action of increasing tissue blood flow in the optic nerve head in the case of instilling omidenepag isopropyl to rabbits was examined.
Omidenepag isopropyl, polyoxyl 35 castor oil, glycerin, sodium citrate, sodium edentate, and benzalkonium chloride were added and dissolved into purified water to adjust the pH. Thereafter, purified water was added to adjust the total volume, thereby preparing a 0.002 w/v % omidenepag isopropyl solution (omidenepag isopropyl sample 3).
The base D and omidenepag isopropyl sample 3 as test compound solutions, each at 50 μL, were instilled (ophthalmic solution, once a day, repeated instillation for 14 days) to examine the change in optic nerve head tissue blood flow. In addition, pigmented rabbits (strain: Dutch, sex: male, four animals per group) were used as experimental animals.
1) After holding the above experimental animals, one drop (about 0.03 mL) of a 0.4% tropicamide ophthalmic solution (trade name: Mydrin-M ophthalmic solution 0.4%) was instilled into the optic nerve head tissue blood flow measurement eye to fully dilate the pupil. Thereafter, laser speckle flowgraphy (LSFG-NAVI manufactured by Softcare Co., Ltd.) was used to measure the tissue blood flow in the optic nerve head of the measurement eye.
2) The test compound solutions were instilled at 50 μL into one eye (optic nerve head tissue blood flow measurement eye) of each of the experimental animals once a day for 14 days (the contralateral eye was untreated).
3) At 1 hour and 2 hours after administration of each test compound solution at day 1, day 7, and day 14 after administration of each test compound solution, the optic nerve head tissue blood flow of the optic nerve head tissue blood flow measurement eye was measured.
(a) The ratio of the optic nerve head tissue blood flow after passage of each of the time periods of 1 hour and 2 hours after administration of each test compound solution at day 1, day 7, and day 14 after the start of administration of each test compound solution to the optic nerve head tissue blood flow immediately before administration (optic nerve head tissue blood flow change rate (%)) was calculated. [Optic Nerve Head Tissue Blood Flow Change Rate (%) After Passage of Each Time Period After Administration]=[Optic Nerve Head Tissue Blood Flow After Passage of Each Time Period After Administration]/[Optic Nerve Head Tissue Blood Flow Immediately Before Administration]×100
(b) For each time period after administration, the difference (base-corrected optic nerve head tissue blood flow change rate (%)) was calculated between the optic nerve head tissue blood flow change rate (%) of the group administered with the base D simultaneously carried out and the optic nerve head tissue blood flow change rate (%) of the group administered with omidenepag isopropyl sample 3. [Base-Corrected Optic Nerve Head Tissue Blood Flow Change Rate (%) After Passage of Each Time Period]=[Optic Nerve Head Tissue Blood Flow Change Rate (%) After Passage of Each Time Period After Administration of Omidenepag Isopropyl Sample 3]−[Optic Nerve Head Tissue Blood Flow Change Rate (%) After Passage of Each Time Period After Administration of Base D]
(c) The base-corrected optic nerve head tissue blood flow change rate (%) of (a) and (b) above was calculated for four experimental animals in each group, and the average thereof was defined as the value of the “base-corrected optic nerve head tissue blood flow change rate (%).”

[2] = test system: retinal blood vessels; experiment: Pharmacological Test 2: retinal vasodilatory action (retinal vascular diameter) after intravitreal administration of omidenepag isopropyl to rabbits; type: in vivo, rabbit; details: for Base-Corrected Retinal Vascular Diameter Change Rate (%) 1 Hour After Administration / Base-Corrected Retinal Vascular Diameter Change Rate (%) 2 Hours After Administration / Base-Corrected Retinal Vascular Diameter Change Rate (%) 6 Hours After Administration / Base-Corrected Retinal Vascular Diameter Change Rate (%) 24 Hours After Administration / Base-Corrected Retinal Vascular Diameter Change Rate (%) 48 Hours After Administration: 20 μL intravitreal single injection, pigmented rabbits
Experimental: (a) The fundus images captured immediately before the administration, 1 hour, 2 hours, 6 hours, and 24 hours after the administration were used to measure, as the vascular diameters, (i) the vascular diameter of the retinal artery on the nose side, (ii) the vascular diameter of the retinal artery on the ear side, and (iii) the optic nerve head diameter (longitudinal diameter passing through the center of the optic nerve head).
(b) The average value of (i) the vascular diameter of the retinal artery on the nose side and (ii) the vascular diameter of the retinal artery on the ear side measured from the fundus images for each time period was divided by (iii) the optic nerve head diameter to calculate the corrected retinal vascular diameter. [Corrected Retinal Vascular Diameter]=(([(i) Vascular Diameter of Retinal Artery on Nose Side]+[(ii) Vascular Diameter of Retinal Artery on Ear Side])/2)/([(iii) Optic Nerve Head Diameter])
(c) The ratio of the corrected retinal vascular diameter after passage of each of the time periods of 1 hour, 2 hours, 6 hours, and 24 hours after administration to the corrected retinal vascular diameter immediately before administration (retinal vascular diameter change rate (%)) was calculated. [Retinal Vascular Diameter Change Rate (%) After Passage of Each Time Period After Administration]=[Corrected Retinal Vascular Diameter After Passage of Each Time Period After Administration]/[Corrected Retinal Vascular Diameter Immediately Before Administration]×100
(d) For each time period after administration, the difference (base-corrected retinal vascular diameter change rate (%)) was calculated between the retinal vascular diameter change rate (%) of the group administered with the base simultaneously carried out and the retinal vascular diameter change rate (%) of the groups administered with samples (omidenepag samples 1 and 2, and CP-544326 samples 1 and 2). [Base-Corrected Retinal Vascular Diameter Change Rate (%) After Passage of Each Time Period]=[Retinal Vascular Diameter Change Rate (%) After Passage of Each Time Period After Administration of Samples]−[Retinal Vascular Diameter Change Rate (%) After Passage of Each Time Period After Administration of Base]
(e) The base-corrected retinal vascular diameter change rate (%) of (a) to (d) above was calculated for three experimental animals in each group, and the average thereof was defined as the value of the “base-corrected retinal vascular diameter change rate (%).”
In order to find anew medicinal use of omidenepag, an ester thereof, or a salt thereof, the retinal vasodilatory action in the case of administering omidenepag isopropyl to rabbits was examined.
Omidenepag isopropyl at 3.98 mg was dissolved in dimethyl sulfoxide to a total volume of 118 μL. Of the total volume, 10 μL was added and dissolved into physiological saline, and an appropriate amount of sodium hydroxide solution was added to adjust the pH of the formulation to 6.4. Thereafter, physiological saline was further added to a total volume of 10 mL to obtain omidenepag isopropyl sample 1 (containing 0.00338% (w/v) (33.8 μg/mL) of omidenepag isopropyl). In addition, the base B was added to 0.1 mL of omidenepag isopropyl sample 1 to a total volume of 10 mL, and omidenepag isopropyl sample 2 was obtained (containing 0.0000338% (w/v) (0.338 μg/mL) of omidenepag isopropyl).
In the same method as that in Pharmacological Test 1, the base B and omidenepag isopropyl samples 1 and 2, each at 20 μL, were administered intravitreally (injection, single time) to examine the change in retinal vascular diameter. Note that, 1 hour, 2 hours, 6 hours, 24 hours, and 48 hours after administration of each test compound solution, fundus images of the retinal vascular diameter measuring eyes were captured, and the retinal vascular diameters and the like were measured from the obtained fundus images. […]

CC(C)OC(=O)CNc1cccc(CN(Cc2ccc(-n3cccn3)cc2)S(=O)(=O)c2cccnc2)n1 [Omidenepag Isopropyl, isopropyl (6-{[4-(pyrazol-1-yl)benzyl](pyridin-3-ylsulfonyl)aminomethyl}pyridin-2-ylamino)acetate]
blood flow increasing action, optic nerve head (in words) ([1]; 0.002 w/v % solution, 50 μL instillation once a day for 14 days, rabbits): good blood flow increasing action | Base-Corrected Optic Nerve Head Tissue Blood Flow Change Rate (%) ([1]; Day 1, 1 hour after administration): 7.2% | Base-Corrected Optic Nerve Head Tissue Blood Flow Change Rate (%) ([1]; Day 1, 2 hours after administration): 6.3% | Base-Corrected Optic Nerve Head Tissue Blood Flow Change Rate (%) ([1]; Day 7, 1 hour after administration): 9.9% | Base-Corrected Optic Nerve Head Tissue Blood Flow Change Rate (%) ([1]; Day 7, 2 hours after administration): 12.4% | Base-Corrected Optic Nerve Head Tissue Blood Flow Change Rate (%) ([1]; Day 14, 1 hour after administration): 13.6% | Base-Corrected Optic Nerve Head Tissue Blood Flow Change Rate (%) ([1]; Day 14, 2 hours after administration): 11.5% | Base-Corrected Retinal Vascular Diameter Change Rate (%) 1 Hour After Administration ([2]; 0.0000338% (w/v) (0.338 μg/mL)): 25.1% | Base-Corrected Retinal Vascular Diameter Change Rate (%) 2 Hours After Administration ([2]; 0.0000338% (w/v) (0.338 μg/mL)): 34.5% | Base-Corrected Retinal Vascular Diameter Change Rate (%) 6 Hours After Administration ([2]; 0.0000338% (w/v) (0.338 μg/mL)): 18.4% | Base-Corrected Retinal Vascular Diameter Change Rate (%) 24 Hours After Administration ([2]; 0.0000338% (w/v) (0.338 μg/mL)): 6.8% | Base-Corrected Retinal Vascular Diameter Change Rate (%) 48 Hours After Administration ([2]; 0.0000338% (w/v) (0.338 μg/mL)): 1.7% | Base-Corrected Retinal Vascular Diameter Change Rate (%) 1 Hour After Administration ([2]; 0.00338% (w/v) (33.8 μg/mL)): 58.4% | Base-Corrected Retinal Vascular Diameter Change Rate (%) 2 Hours After Administration ([2]; 0.00338% (w/v) (33.8 μg/mL)): 81.7% | Base-Corrected Retinal Vascular Diameter Change Rate (%) 6 Hours After Administration ([2]; 0.00338% (w/v) (33.8 μg/mL)): 73.8% | Base-Corrected Retinal Vascular Diameter Change Rate (%) 24 Hours After Administration ([2]; 0.00338% (w/v) (33.8 μg/mL)): 16.0% | Base-Corrected Retinal Vascular Diameter Change Rate (%) 48 Hours After Administration ([2]; 0.00338% (w/v) (33.8 μg/mL)): 0.0% | durability of retinal vasodilatory action compared with omidenepag (in words) ([2]; both 65.0 μM, 24 hours after intravitreal administration, rabbits): amore durable action than omidenepag | retinal vasodilatory action (in words) ([2]; intravitreal, rabbits): significantly strong retinal vasodilatory action
